One data set deals with T1, PSMA (Homo sapiens, UniProt Q04609).
T1 construct: PSMA was prepared from LNCaP prostatic carcinoma cells as described by Pinto J. T. et al; endogenous in cells; host or cells: LNCaP prostatic carcinoma cells
Description: Inhibition of PSMA, radiolabelled N-acetylaspartylglutamate as substrate, generation of glutamic acid monitored. It counts as biochemical. Here is the method: PSMA was prepared from LNCaP prostatic carcinoma cells as described by Pinto J. T. et al., Clinical Cancer Res. Vol.2 p.1445 (1996). The enzyme was assayed employing radiolabelled N-acetylaspartylglutamate as a substrate and monitoring the generation of glutamic acid in the presence of varying concentrations of Compound 1 or 1.1. […] Compound 1.1 inhibited the enzyme 50% at 3.4 nM.

Data set [1] deals with dihydroorotic acid dehydrogenase (Homo sapiens, UniProt Q02127). The conditions noted are these: cited from earlier work.
A further data set deals with Protein Kinase C (PKC). The conditions noted are these: cited from earlier work.
Another data set deals with PKA (Homo sapiens, UniProt P17612). The conditions noted are these: cited from earlier work.
Data set [2] concerns PSMA positive human prostate tumor cells. Description: In vitro growth of PSMA positive prostate tumor cells with a PSMA inhibitor. It counts as cell-based. To be noted: in the presence of high concentrations of the inhibitor.
The conditions of data set [3]: read-out: IC50 (cytotoxin); cited from earlier work.
Another data set has as its system IMP dehydrogenase. The conditions noted are these: cited from earlier work.

Read-outs that look alike come from different tables or passages of the source.

T1 sequence (Q04609 whole entry): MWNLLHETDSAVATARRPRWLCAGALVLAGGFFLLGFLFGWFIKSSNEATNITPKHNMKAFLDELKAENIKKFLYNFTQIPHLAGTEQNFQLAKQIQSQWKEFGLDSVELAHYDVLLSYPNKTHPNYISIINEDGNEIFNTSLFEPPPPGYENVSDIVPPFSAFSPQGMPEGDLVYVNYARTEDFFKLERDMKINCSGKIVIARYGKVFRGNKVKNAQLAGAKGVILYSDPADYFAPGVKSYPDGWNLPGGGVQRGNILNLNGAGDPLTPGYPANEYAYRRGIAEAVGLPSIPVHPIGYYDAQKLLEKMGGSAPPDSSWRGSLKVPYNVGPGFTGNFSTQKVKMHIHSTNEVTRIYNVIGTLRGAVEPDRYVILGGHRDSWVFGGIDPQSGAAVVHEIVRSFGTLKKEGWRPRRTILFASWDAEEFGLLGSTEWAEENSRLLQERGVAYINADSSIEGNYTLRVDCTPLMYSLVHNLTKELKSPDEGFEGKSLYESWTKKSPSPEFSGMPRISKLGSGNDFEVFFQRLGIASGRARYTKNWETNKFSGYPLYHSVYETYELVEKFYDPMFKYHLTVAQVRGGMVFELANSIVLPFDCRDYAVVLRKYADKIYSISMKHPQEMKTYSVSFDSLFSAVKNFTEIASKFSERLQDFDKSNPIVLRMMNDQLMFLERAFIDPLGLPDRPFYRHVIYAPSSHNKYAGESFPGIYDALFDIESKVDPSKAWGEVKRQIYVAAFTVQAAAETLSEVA
Sequence of dihydroorotic acid dehydrogenase (Q02127 whole entry): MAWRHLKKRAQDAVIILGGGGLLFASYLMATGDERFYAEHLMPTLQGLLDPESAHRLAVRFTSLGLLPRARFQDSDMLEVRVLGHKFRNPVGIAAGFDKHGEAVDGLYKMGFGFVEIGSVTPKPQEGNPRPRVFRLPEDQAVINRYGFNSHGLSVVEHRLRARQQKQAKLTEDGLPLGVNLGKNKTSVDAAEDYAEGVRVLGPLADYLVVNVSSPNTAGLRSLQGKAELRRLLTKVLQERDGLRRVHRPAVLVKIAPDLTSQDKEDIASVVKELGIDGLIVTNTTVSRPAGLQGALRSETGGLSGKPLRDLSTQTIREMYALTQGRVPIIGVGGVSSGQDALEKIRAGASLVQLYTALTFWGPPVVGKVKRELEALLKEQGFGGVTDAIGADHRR

Usually Ki stands for the equilibrium dissociation constant of an inhibitor or competing ligand from its target. Consider `O=C(O)CCC(CP(=O)(O)CCC(=O)NC(CCCCNC(=S)Nc1ccc(-c2c3ccc(=O)cc-3oc3cc(O)ccc23)c(C(=O)O)c1)C(=O)NCCc1ccc(O)cc1)C(=O)O` (stereo not shown) [Compound 1.1], for which, on PSMA, the IC50 was 3.4 nM and the affinity, expressed as Ki, was 3.4 nM. On to `Cc1c(-c2ccc(-c3ccccc3F)cc2)nc2ccc(F)cc2c1C(=O)O` [brequinar], for which the “level at which dihydroorotic acid dehydrogenase is inhibited” value in data set [1] is given as “nonamolar levels”. `O=C(O)CCC(OP(=O)(O)OCCCOCCNC(=O)CCCCCNS(=O)(=O)c1ccc(C2=c3cc4c5c(c3Oc3c2cc2c6c3CCCN6CCC2)CCC[N+]=5CCC4)c(S(=O)(=O)[O-])c1)C(=O)O` (stereo not shown) [Compound 1]: the IC50 on PSMA (PSMA prepared from LNCaP prostatic carcinoma cells, radiolabelled N-acetylaspartylglutamate substrate, read-out: concentration that inhibited the enzyme 50%) came to 20 nM. Further, the Ki at PSMA (PSMA prepared from LNCaP prostatic carcinoma cells, read-out: Ki for inhibition of PSMA) turned out to be 20 nM. As to 10″-deoxybalanol, the Ki on Protein Kinase C (PKC) is 640 nM; on PKA it was 4 nM. As for `O=C(O)CCC(CP(=O)(O)O)C(=O)O` (stereo not shown) [2-(phosphonomethyl)-pentanedioic acid], the “growth of tumor cells in vitro” value in data set [2] is “readily grow”. Turning to `COc1c(C)cc2c(c1O)C1C3Cc4c(OC(C)=O)c(C)c5c(c4C(CN4C(=O)c6ccccc6C4=O)N3C(C#N)C(C2)N1C)OCO5` (stereo not shown) [Phthalascidin], the IC50 in data set [3] is 0.1 to 1 nM. As to `COc1c(C)c2c(c(O)c1C/C=C(\C)CCC(=O)O)C(=O)OC2` [mycophenolic acid], in the data set with IMP dehydrogenase, the “level at which IMP dehydrogenase is inhibited” value was “nanomolar levels”.

Source of the values: patent publication US20030138432A1, “Selective cellular targeting: multifunctional delivery vehicles, multifunctional prodrugs, use as antineoplastic drugs” (Drug Innovation & Design, Inc., priority 1999, published 2003).
